# Values joined by “and” are separate entries in the source; they are usually repeats but may differ in a detail not shown here. Equal values may be shown once. Toxic doses and inconclusive results are not listed.
# Test system: P388 leukemia ip, CD2F1 mice, survival T/C
# Assay: NCI In Vivo Anticancer Drug Screen. Data for tumor model P388 Leukemia (intraperitoneal) in CD2F1 (CDF1) mice
# Settings: endpoint: median survival time, higher = longer survival
# How it was run: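 Mice carrying the transplanted tumor received test compound or vehicle. Survival was recorded in each group, and the value is the treated-group measurement divided by that of the vehicle-treated control group.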
# [1] = dose: 50.0 mg/kg/injection, schedule: Q01DX005 (ip), vehicle: saline with Tween-80
# [2] = dose: 100.0 mg/kg/injection, schedule: Q01DX005 (ip), vehicle: saline with Tween-80
# [3] = dose: 200.0 mg/kg/injection, schedule: Q01DX005 (ip), vehicle: saline with Tween-80
# [4] = dose: 60.0 mg/kg/injection, schedule: Q01DX005 (ip), vehicle: saline with Tween-80
# [5] = dose: 120.0 mg/kg/injection, schedule: Q01DX005 (ip), vehicle: saline with Tween-80
# [6] = dose: 240.0 mg/kg/injection, schedule: Q01DX005 (ip), vehicle: saline with Tween-80
structure (smiles),measurement,setting,value
O=C(c1cccc2c1Oc1ccccc1S2)c1cccc2c1Oc1ccccc1S2,T/C,[1],113 % of control
same,T/C,[2],103 % of control
same,T/C,[3],103 % of control
C#CO[C@@H]1C[C@H](C)CCC1C(C)C (some centres not stated),T/C,[4],100 % of control
same,T/C,[5],106 % of control
CN(C)c1ccc2c(NCCCCCCNc3ccnc4cc(N(C)C)ccc34)ccnc2c1,T/C,"dose: 1.56 mg/kg/injection, schedule: Q01DX009 (ip), vehicle: distilled water + alcohol",116 % of control
same,T/C,"dose: 6.25 mg/kg/injection, schedule: Q01DX009 (ip), vehicle: distilled water + alcohol",120 % of control
same,T/C,"dose: 12.5 mg/kg/injection, schedule: Q01DX009 (ip), vehicle: distilled water + alcohol",150 % of control and 152 % of control
same,T/C,"dose: 25.0 mg/kg/injection, schedule: Q01DX009 (ip), vehicle: distilled water + Tween-80 + alcohol",174 % of control
same,T/C,"dose: 50.0 mg/kg/injection, schedule: Q01DX009 (ip), vehicle: distilled water + alcohol",168 % of control
CC1OC(OC2C(Oc3ccc4c(=O)c(-c5ccc(O)c(O)c5O)coc4c3)OC(CO)C(O)C2O)C(O)C(O)C1O (configuration not stated),T/C,[4],103 % of control
same,T/C,[5],101 % of control
same,T/C,[6],103 % of control
CCOC(=O)/C(C#N)=C(/SC)N1CC1,T/C,"dose: 12.5 mg/kg/injection, schedule: Q01DX009 (ip), vehicle: Klucel (hydroxypropylcellulose) (HPC)",100 % of control
same,T/C,"dose: 25.0 mg/kg/injection, schedule: Q01DX009 (ip), vehicle: Klucel (hydroxypropylcellulose) (HPC)",93 % of control
same,T/C,"dose: 50.0 mg/kg/injection, schedule: Q01DX009 (ip), vehicle: Klucel (hydroxypropylcellulose) (HPC)",110 % of control and 90 % of control
C/C(=N\NC(=S)Nc1nccs1)c1nccc2ccccc12,T/C,[1],100 % of control
same,T/C,[2],114 % of control
same,T/C,[3],122 % of control
N/C(=N\O)c1c(Br)n(C2OC(CO)C(O)C2O)c2ncnc(N)c12 (configuration not stated),T/C,[4],109 % of control and 122 % of control
same,T/C,[5],120 % of control and 122 % of control
same,T/C,[6],116 % of control
same,T/C,"dose: 480.0 mg/kg/injection, schedule: Q01DX005 (ip), vehicle: saline with Tween-80",114 % of control
O=C1CC[C@@H]2CCCC[C@@H]2C1,T/C,"dose: 12.5 mg/kg/injection, schedule: Q01DX009 (ip), vehicle: saline sonified",104 % of control
same,T/C,"dose: 25.0 mg/kg/injection, schedule: Q01DX009 (ip), vehicle: saline sonified",118 % of control
same,T/C,"dose: 50.0 mg/kg/injection, schedule: Q01DX009 (ip), vehicle: saline sonified",100 % of control
N=C1N=Nc2nc(C(C(=O)c3cccc([N+](=O)[O-])c3Cl)c3nc4n(c3O)C(=N)N=N4)c(O)n21 (configuration not stated),T/C,[4],106 % of control
same,T/C,[5],105 % of control
same,T/C,[6],106 % of control
C[C@]12CCCC[C@@H]1CC[C@@H]1[C@@H]2[C@@H](O)C[C@@]2(C)[C@H]1CC[C@]2(C)O,T/C,"dose: 100.0 mg/kg/injection, schedule: Q04DX003 (ip), vehicle: saline with Tween-80",100 % of control
same,T/C,"dose: 200.0 mg/kg/injection, schedule: Q04DX003 (ip), vehicle: saline with Tween-80",100 % of control
O=Cc1cccc[n+]1Cc1ccc2c(c1)OCO2,T/C,"dose: 25.0 mg/kg/injection, schedule: Q01DX009 (ip), vehicle: distilled water + Tween-80",100 % of control
same,T/C,"dose: 50.0 mg/kg/injection, schedule: Q01DX009 (ip), vehicle: distilled water + Tween-80",100 % of control
CC1=NN(c2ccccc2)C(=O)C1N=Nc1ccccc1S(=O)(=O)O (configuration not stated),T/C,"dose: 50.0 mg/kg/injection, schedule: Q01DX009 (ip), vehicle: saline",108 % of control
same,T/C,"dose: 100.0 mg/kg/injection, schedule: Q01DX009 (ip), vehicle: saline",109 % of control
same,T/C,"dose: 200.0 mg/kg/injection, schedule: Q01DX009 (ip), vehicle: saline",111 % of control
COc1cc2cc(c1Cl)N(C)C(=O)C[C@H](OC(=O)[C@H](C)N(C)C(=O)CC(C)C)[C@]1(C)O[C@H]1[C@H](C)[C@@H]1C[C@@](O)(NC(=O)O1)[C@H](OC)C=C/C=C(\C)C2,T/C,"dose: 0.1 micrograms/kg/injection, schedule: Q01DX009 (ip), vehicle: saline",107 % of control
same,T/C,"dose: 0.2 micrograms/kg/injection, schedule: Q01DX009 (ip), vehicle: saline",107 % of control
same,T/C,"dose: 0.4 micrograms/kg/injection, schedule: Q01DX009 (ip), vehicle: saline",114 % of control
same,T/C,"dose: 6.3 micrograms/kg/injection, schedule: Q01DX009 (ip), vehicle: saline + alcohol",158 % of control
same,T/C,"dose: 12.5 micrograms/kg/injection, schedule: Q01DX009 (ip), vehicle: saline + alcohol",169 % of control
same,T/C,"dose: 25.0 micrograms/kg/injection, schedule: Q01DX009 (ip), vehicle: saline + alcohol",198 % of control

# Reference: PubChem BioAssay AID330 (DTP/NCI, 2004)
